What was measured:
[1] = wn = mass fraction of the nth substance listed; conditions: 101.3 kPa, Liquid, Oscillating disk viscometry
[2] = refractive index (Na D-line) (dimensionless); wn = mass fraction of the nth substance listed; conditions: 101.3 kPa, Liquid, Standard Abbe refractometry

CNCCO [2-(methylamino)ethanol] + O
Conditions | refractive index, [2] | viscosity, [1] [mPa·s]
293.15 K, w1 = 0.05 | 1.3421 | 1.31
293.15 K, w1 = 0.1 | 1.3452 | 1.68
293.15 K, w1 = 0.15 | 1.3484 | 2.38
293.15 K, w1 = 0.2 | 1.3522 | 2.66
293.15 K, w1 = 0.25 | 1.3568 | 3.4
293.15 K, w1 = 0.3 | 1.3624 | 4.22
298.15 K, w1 = 0.05 | 1.3414 | 1.1
298.15 K, w1 = 0.1 | 1.3444 | 1.42
298.15 K, w1 = 0.15 | 1.3476 | 2.02
298.15 K, w1 = 0.2 | 1.3513 | 2.17
298.15 K, w1 = 0.25 | 1.3558 | 2.74
298.15 K, w1 = 0.3 | 1.3614 | 3.52
303.15 K, w1 = 0.05 | 1.3405 | 0.99
303.15 K, w1 = 0.1 | 1.3435 | 1.22
303.15 K, w1 = 0.15 | 1.3467 | 1.74
303.15 K, w1 = 0.2 | 1.3502 | 1.83
303.15 K, w1 = 0.25 | 1.3547 | 2.32
303.15 K, w1 = 0.3 | 1.3602 | 2.96
308.15 K, w1 = 0.05 | 1.3396 | 0.88
308.15 K, w1 = 0.1 | 1.3426 | 1.05
308.15 K, w1 = 0.15 | 1.3456 | 1.42
308.15 K, w1 = 0.2 | 1.349 | 1.52
308.15 K, w1 = 0.25 | 1.3534 | 1.96
308.15 K, w1 = 0.3 | 1.3588 | 2.52
313.15 K, w1 = 0.05 | 1.3386 | 0.79
313.15 K, w1 = 0.1 | 1.3416 | 0.94
313.15 K, w1 = 0.15 | 1.3445 | 1.22
313.15 K, w1 = 0.2 | 1.3478 | 1.32
313.15 K, w1 = 0.25 | 1.352 | 1.71
313.15 K, w1 = 0.3 | 1.3573 | 2.2
318.15 K, w1 = 0.05 | 1.3375 | 0.72
318.15 K, w1 = 0.1 | 1.3405 | 0.84
318.15 K, w1 = 0.15 | 1.3434 | 1.04
318.15 K, w1 = 0.2 | 1.3465 | 1.19
318.15 K, w1 = 0.25 | 1.3505 | 1.49
318.15 K, w1 = 0.3 | 1.3558 | 1.92
323.15 K, w1 = 0.05 | 1.3364 | 0.65
323.15 K, w1 = 0.1 | 1.3394 | 0.75
323.15 K, w1 = 0.15 | 1.3421 | 0.93
323.15 K, w1 = 0.2 | 1.3451 | 1.06
323.15 K, w1 = 0.25 | 1.349 | 1.29
323.15 K, w1 = 0.3 | 1.3542 | 1.65
328.15 K, w1 = 0.05 | 1.3352 | 0.58
328.15 K, w1 = 0.1 | 1.3381 | 0.67
328.15 K, w1 = 0.15 | 1.3406 | 0.83
328.15 K, w1 = 0.2 | 1.3436 | 0.94
328.15 K, w1 = 0.25 | 1.3474 | 1.12
328.15 K, w1 = 0.3 | 1.3524 | 1.41
333.15 K, w1 = 0.05 | 1.334 | 0.52
333.15 K, w1 = 0.1 | 1.3368 | 0.6
333.15 K, w1 = 0.15 | 1.3391 | 0.74
333.15 K, w1 = 0.2 | 1.342 | 0.83
333.15 K, w1 = 0.25 | 1.3456 | 0.99
333.15 K, w1 = 0.3 | 1.3504 | 1.2

— the NIST ThermoML archive (doi:10.1021/acs.jced.9b00171)
